# Values of other authors, collected in patent US20150101082A1, “PROCESSING SEEDS BY COLD PLASMA TREATMENT TO REDUCE AN APPARENT CONTACT ANGLE OF SEEDS COAT SURFACE” (priority 2012, published 2015).
# Key:
# mice [1] = details: inhalation, 7 hours
# rats = details: oral
# mice [2] = details: oral
Compound,LC50 (mice [1]) [ppm],LD50 (rats) [mg/kg],LD50 (mice [2]) [mg/kg]
Nc1ccccc1 [Aniline],175,–,–
NN [Hydrazine],–,~60,~60
